# Assays:
# [1] = target: human-recombinant protein kinase N (Homo sapiens, UniProt Q16512); test: Measurement of inhibition activity of protein kinase N (PKN); assay type: biochemical
# Method: The PKN reaction was carried out in 50 µl reaction buffer (20mM Tris HCI pH 7.5, 8mM MgCl2) containing (i) 40µM PKCα peptide ([…]) as a substrate of PKN, (ii) 1 µM GTPγS form GST-RhoA (prepared by the method of Method in ENZYMOLOGY Vol. 256 Small GTPases and Their Regulators Part B Rho Family P.3-10), (iii) 50µM, 20µM, 10µM and 5µM (as the final concentration of the reaction mixture) of ATP and 0.5µl of [γ-^32P] ATP (1.11 TBg/mmol, 74MBg/ml; supplied by NEN™ Life Science Product, Inc.), and (iv) a purified human-recombinant protein kinase N (prepared by using a Baculovirus expression system), in the presence of or in the absence of 1 µM of hexahydro-1-(5-isoquinolinesulfonyl)-1H-1,4-diazepine hydrochloride (Fasudil Hydrochloride). 30µl of the reaction mixture was spotted onto Whatman paper P81 (supplied by Whatman International Ltd.) after the incubation for 10 minutes at 30°C. After the spotting, the spotted Whatman paper was washed with 75mM phosphoric acid 5 times. Then incorporation of ^32P into the PKCα peptide on the washed paper was assessed by scintillation counting. Based on the assessment by scintillation counting, Km value was measured by Lineweaver-Burk plot (method), then K, value was calculated.
# [2] = target: ROCK (Homo sapiens, UniProt Q13464); test: ROCK inhibition (from Table 1 of Nature vol. 389, p. 991); assay type: biochemical; details: based on the Ki values of Table 1 of Nature vol. 389, p. 991
# Description: According to Table 1 of Nature vol. […] 389, p. 991/30 October 1997 based on the Ki values.
# [3] = system: Rat MM-1 Ascites Hepatoma cells bearing V14 Rho A; test: Peritoneal invasion of Rat MM-1 ascites hepatoma cells bearing V14 Rho A (carcinomatous peritonitis model); assay type: in vivo, male Donryu rats; details: after 11 days, 5 rats
# Method: MMI ascites hepatoma cells (2x10^7) stably expressing Val 14-RhoA were injected into the peritoneal cavities of male Donryu rats (body weight 100g) (to obtain a model of rat having MM-1 ascites Hepatoma cells bearing V14 Rho A). Fasudil was intravenously delivered at the indicated dose (0, 0.1 mg/Kg, 1 mg/Kg, and 10 mg/Kg) 3 times per day. After 11 days, the animals were sacrificed and (i) tumor nodules and tumor cell dissemination on peritoneum were assessed (This test was conducted by the method which is similar to one described in Nature Medicine Volume 5, Number 2, February 1999, p.223-225 and was conducted with 5 rats at each dose.). In addition, hyperemia of the surface in the peritoneum was also observed.
# [4] = 0.1 mg/Kg intravenously 3 times per day
# [5] = 1 mg/Kg intravenously 3 times per day
# [6] = 10 mg/Kg intravenously 3 times per day
# Sequence of human-recombinant protein kinase N (Q16512 whole entry): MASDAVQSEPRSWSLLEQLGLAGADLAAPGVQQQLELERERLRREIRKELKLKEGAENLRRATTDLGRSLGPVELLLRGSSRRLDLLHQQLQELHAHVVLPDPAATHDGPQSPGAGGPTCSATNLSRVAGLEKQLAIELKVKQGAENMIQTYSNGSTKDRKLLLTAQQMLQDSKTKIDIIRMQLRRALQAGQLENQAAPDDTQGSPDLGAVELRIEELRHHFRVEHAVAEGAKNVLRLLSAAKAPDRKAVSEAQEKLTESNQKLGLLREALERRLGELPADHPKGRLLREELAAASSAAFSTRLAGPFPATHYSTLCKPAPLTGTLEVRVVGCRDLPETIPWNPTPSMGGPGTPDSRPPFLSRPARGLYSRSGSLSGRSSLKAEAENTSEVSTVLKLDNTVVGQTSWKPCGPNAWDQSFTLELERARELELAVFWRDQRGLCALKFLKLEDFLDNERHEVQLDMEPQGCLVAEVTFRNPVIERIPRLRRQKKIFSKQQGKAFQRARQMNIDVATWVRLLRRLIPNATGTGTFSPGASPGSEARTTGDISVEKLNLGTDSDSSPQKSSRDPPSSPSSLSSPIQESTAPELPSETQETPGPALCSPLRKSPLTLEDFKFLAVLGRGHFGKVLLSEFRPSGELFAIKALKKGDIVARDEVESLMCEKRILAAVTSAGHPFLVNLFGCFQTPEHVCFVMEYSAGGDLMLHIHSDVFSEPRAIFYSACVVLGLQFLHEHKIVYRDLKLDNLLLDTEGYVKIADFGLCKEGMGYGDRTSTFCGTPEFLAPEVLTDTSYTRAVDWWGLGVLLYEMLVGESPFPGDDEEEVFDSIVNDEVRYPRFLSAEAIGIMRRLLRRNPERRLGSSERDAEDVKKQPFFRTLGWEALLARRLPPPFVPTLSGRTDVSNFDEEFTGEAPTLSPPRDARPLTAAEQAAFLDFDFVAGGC
# Sequence of human-recombinant protein kinase N (P61586 whole entry partner): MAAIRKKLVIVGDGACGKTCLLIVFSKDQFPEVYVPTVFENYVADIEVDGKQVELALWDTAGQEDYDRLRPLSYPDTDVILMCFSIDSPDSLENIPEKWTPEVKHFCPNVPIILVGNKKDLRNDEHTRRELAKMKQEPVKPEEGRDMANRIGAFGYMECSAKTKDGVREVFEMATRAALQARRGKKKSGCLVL
# Sequence of ROCK (Q13464 whole entry): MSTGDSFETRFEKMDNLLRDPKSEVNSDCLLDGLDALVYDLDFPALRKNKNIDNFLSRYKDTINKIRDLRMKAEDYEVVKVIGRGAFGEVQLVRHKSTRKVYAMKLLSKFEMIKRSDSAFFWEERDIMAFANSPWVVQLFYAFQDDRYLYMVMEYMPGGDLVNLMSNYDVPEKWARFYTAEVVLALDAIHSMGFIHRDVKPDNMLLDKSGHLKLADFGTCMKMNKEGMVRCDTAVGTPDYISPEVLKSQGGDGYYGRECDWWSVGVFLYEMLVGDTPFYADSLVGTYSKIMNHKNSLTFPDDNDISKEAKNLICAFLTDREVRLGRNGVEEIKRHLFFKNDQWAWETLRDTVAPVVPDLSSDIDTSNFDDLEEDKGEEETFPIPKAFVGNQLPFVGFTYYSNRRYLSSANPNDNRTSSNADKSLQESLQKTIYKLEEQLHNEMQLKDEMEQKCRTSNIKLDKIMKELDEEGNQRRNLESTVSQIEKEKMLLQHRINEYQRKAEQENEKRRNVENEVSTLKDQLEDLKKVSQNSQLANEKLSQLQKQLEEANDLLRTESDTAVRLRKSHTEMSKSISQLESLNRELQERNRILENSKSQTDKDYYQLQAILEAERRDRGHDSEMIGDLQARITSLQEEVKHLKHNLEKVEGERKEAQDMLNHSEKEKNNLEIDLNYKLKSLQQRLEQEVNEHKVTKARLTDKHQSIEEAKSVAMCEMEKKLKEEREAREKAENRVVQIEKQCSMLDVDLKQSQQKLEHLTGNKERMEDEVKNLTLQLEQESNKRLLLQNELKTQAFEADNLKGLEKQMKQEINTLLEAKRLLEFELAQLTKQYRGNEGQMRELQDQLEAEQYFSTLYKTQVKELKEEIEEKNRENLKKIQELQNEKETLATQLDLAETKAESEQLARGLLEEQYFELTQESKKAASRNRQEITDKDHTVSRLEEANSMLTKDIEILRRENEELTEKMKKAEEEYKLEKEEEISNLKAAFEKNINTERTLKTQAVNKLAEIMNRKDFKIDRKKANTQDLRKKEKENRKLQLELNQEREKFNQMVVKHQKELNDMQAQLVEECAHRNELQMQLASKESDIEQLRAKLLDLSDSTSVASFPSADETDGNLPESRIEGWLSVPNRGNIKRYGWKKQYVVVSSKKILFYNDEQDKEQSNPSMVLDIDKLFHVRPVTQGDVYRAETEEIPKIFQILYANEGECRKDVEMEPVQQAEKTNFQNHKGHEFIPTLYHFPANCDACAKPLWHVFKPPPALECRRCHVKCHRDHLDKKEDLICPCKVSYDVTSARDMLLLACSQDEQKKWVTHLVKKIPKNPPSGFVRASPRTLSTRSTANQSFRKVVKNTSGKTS
compound,measurement,setting,value
"Cl.O=S(=O)(c1cccc2cnccc12)N1CCCNCC1 [Fasudil Hydrochloride, hexahydro-1-(5-isoquinolinesulfonyl)-1H-1,4-diazepine hydrochloride]",Ki,"[1]; 1 µM Fasudil Hydrochloride, ATP 50, 20, 10 and 5 µM, Lineweaver-Burk plot, 10 minutes at 30°C",922 nM
same,PKN inhibitory activity relative to the inhibitory activity of protein kinase C,"[1]; based on the Ki values, protein kinase C Ki from Table 1 of Nature vol. 389, p. 991",ten times higher
same,ROCK inhibitory activity relative to the inhibitory activity of protein kinase C,[2],28 times
same,Hyperemia of the surface in the peritoneum,[3]; [4],+ (25-50% of surface in the peritoneum shows hyperemia)
same,Total number of tumor nodules on peritoneum,[3]; [4],22
same,Hyperemia of the surface in the peritoneum,[3]; [5],± (less than 25% of surface in the peritoneum shows hyperemia)
same,Total number of tumor nodules on peritoneum,[3]; [5],11
same,Hyperemia of the surface in the peritoneum,[3]; [6],± (less than 25% of surface in the peritoneum shows hyperemia)
same,Total number of tumor nodules on peritoneum,[3]; [6],0

# Source: patent EP1064944A1, “Protein kinase N inhibitor comprising Fasudil” (priority 1999, dated 2001)
